Our source for the inhibition values is ChEMBL document CHEMBL1140113, “Structural requirements for drug inhibition of the liver specific human organic cation transport protein 1” (J Med Chem, 2008).

Molecules are shown by their SMILES.

The target in one data set is T1, OCT1 (SLC22A1) (Homo sapiens, UniProt O15245).
T1 sequence (O15245 whole entry): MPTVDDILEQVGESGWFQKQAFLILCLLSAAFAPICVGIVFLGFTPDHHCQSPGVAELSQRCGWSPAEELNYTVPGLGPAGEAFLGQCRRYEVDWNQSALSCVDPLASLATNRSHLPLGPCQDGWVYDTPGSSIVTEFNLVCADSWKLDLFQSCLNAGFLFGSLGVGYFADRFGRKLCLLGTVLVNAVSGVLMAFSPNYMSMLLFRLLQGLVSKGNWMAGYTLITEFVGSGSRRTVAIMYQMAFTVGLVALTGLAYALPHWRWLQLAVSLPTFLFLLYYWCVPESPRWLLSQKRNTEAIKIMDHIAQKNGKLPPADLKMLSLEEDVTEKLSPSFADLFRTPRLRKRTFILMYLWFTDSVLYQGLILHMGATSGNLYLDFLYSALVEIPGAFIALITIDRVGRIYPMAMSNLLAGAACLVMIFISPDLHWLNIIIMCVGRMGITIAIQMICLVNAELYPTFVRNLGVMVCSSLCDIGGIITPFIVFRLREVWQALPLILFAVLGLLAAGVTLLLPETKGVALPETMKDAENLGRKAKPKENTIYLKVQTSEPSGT
The data set can be described thus: in vitro. Conditions: HEK293 cells that express human OCT1, probe 4-(4-(dimethylamino)styryl)-N-methylpyridinium.
In the case of `NC(N)=NCCCCN=C(N)N` [ARCAINE], the inhibition at 100 µM stood at 4.5%.

On to `Cc1c(C)c2c(c(C)c1O)CCC(C)(COc1ccc(CC3SC(=O)NC3=O)cc1)O2` (stereo unspecified) [TROGLITAZONE], for which the inhibition at 100 µM is 48.2%.

As for `CCC[C@@H]1C[C@@H](C(=O)N[C@@H]([C@H]2O[C@H](SC)[C@H](O)[C@@H](O)[C@H]2O)[C@H](C)Cl)N(C)C1` [CLINDAMYCIN], the inhibition at 100 µM was 19.5%.

As to `CCCC(CCC)C(=O)O` [VALPROIC ACID], the inhibition at 100 µM was determined as 19.6%.

With `CC(=O)Nc1ccc(O)cc1` [ACETAMINOPHEN], the inhibition at 100 µM is -9.2%.

Regarding `CCOC(=O)N1CCC(=C2c3ccc(Cl)cc3CCc3cccnc32)CC1` [LORATADINE], the inhibition at 100 µM stood at 51.8%.

`N=C(N)c1ccc(CNC(=O)[C@@H]2CCN2C(=O)[C@H](NCC(=O)O)C2CCCCC2)cc1`: the inhibition at 100 µM is -0.2%.

With `O=C(N[C@H](CO)[C@H](O)c1ccc([N+](=O)[O-])cc1)C(Cl)Cl` [CHLORAMPHENICOL], the inhibition at 100 µM amounted to 1.4%.

`N[C@@H](Cc1cc(I)c(Oc2cc(I)c(O)c(I)c2)c(I)c1)C(=O)O` [LEVOTHYROXINE]: the inhibition at 100 µM came to 12.7%.

For `CCC1(c2ccccc2)C(=O)NC(=O)NC1=O` [PHENOBARBITAL], the inhibition at 100 µM was -6%.

For `CN(Cc1cnc2nc(N)nc(N)c2n1)c1ccc(C(=O)N[C@@H](CCC(=O)O)C(=O)O)cc1` [METHOTREXATE], the inhibition at 100 µM was determined as 26.3%.

On to `CCCC(C)(COC(N)=O)COC(=O)NC(C)C` (stereo unspecified) [CARISOPRODOL], for which the inhibition at 100 µM was found to be 19.8%.

`O=P(O)(O)C(Cl)(Cl)P(=O)(O)O` [CLODRONIC ACID]: the inhibition at 100 µM came to 5.6%.

`CC[C@@H]1C(=O)OC[C@@H]1Cc1cncn1C` [PILOCARPINE]: the inhibition at 100 µM was determined as 17%.

Turning to `C[C@H](CS)C(=O)N1CCC[C@H]1C(=O)O` [CAPTOPRIL], the inhibition at 100 µM turned out to be 0.3%.

With `Cc1cccc(CN2CCN(C(c3ccccc3)c3ccc(Cl)cc3)CC2)c1` (stereo unspecified) [MECLIZINE], the inhibition at 100 µM was 16.4%.

`C=C[C@H]1C[N@@]2CC[C@H]1C[C@@H]2[C@@H](O)c1ccnc2ccc(OC)cc12` [QUINIDINE]: the inhibition at 100 µM amounted to 62.9%.

For `Cn1c(=O)c2c(ncn2C)n(C)c1=O` [CAFFEINE], the inhibition at 100 µM was -1.4%.

Regarding `O=c1[nH]cc(F)c(=O)[nH]1` [FLUOROURACIL], the inhibition at 100 µM came out at 0.9%.

In the case of `CCOc1nc2cccc(C(=O)O)c2n1Cc1ccc(-c2ccccc2-c2nnn[nH]2)cc1`, the inhibition at 100 µM is 6.3%.

For the compound `N[C@@H](Cc1ccc(O)c(O)c1)C(=O)O` [LEVODOPA], the inhibition at 100 µM was found to be 21.7%.

On to `Nc1nc(O)c2ncn(COC(CO)CO)c2n1` [GANCICLOVIR], for which the inhibition at 100 µM was determined as 10.5%.

On to `CC(C)OC(=O)C(C)(C)Oc1ccc(C(=O)c2ccc(Cl)cc2)cc1` [FENOFIBRATE], for which the inhibition at 100 µM stood at 0.2%.

As to `NC(=O)N1c2ccccc2C=Cc2ccccc21` [CARBAMAZEPINE], the inhibition at 100 µM turned out to be 8.4%.

As to `CC(=O)[C@@]1(O)CC[C@H]2[C@@H]3C=C(Cl)C4=CC(=O)[C@@H]5C[C@@H]5[C@]4(C)[C@H]3CC[C@@]21C` [CYPROTERONE], the inhibition at 100 µM was determined as 61.6%.

In the case of `O=C1CC[C@@]2(O)[C@H]3Cc4ccc(O)c5c4[C@@]2(CCN3CC2CC2)[C@H]1O5` [NALTREXONE], the inhibition at 100 µM is 40.3%.

As for `CN1C[C@H](C(=O)N[C@]2(C)O[C@@]3(O)[C@@H]4CCCN4C(=O)[C@H](Cc4ccccc4)N3C2=O)C=C2c3cccc4[nH]cc(c34)C[C@H]21` [ERGOTAMINE], the inhibition at 100 µM worked out at 16.7%.

Consider `O=C1CC2(CCCC2)CC(=O)N1CCCCN1CCN(c2ncccn2)CC1` [BUSPIRONE], for which the inhibition at 100 µM was found to be 24.7%.

Regarding `CC(C)Cc1ccc(C(C)C(=O)O)cc1` (stereo unspecified) [IBUPROFEN], the inhibition at 100 µM was 6.3%.

Consider `C[C@]12CC[C@@H]3c4ccc(O)cc4CC[C@H]3[C@@H]1CC[C@@H]2O` [ESTRADIOL], for which the inhibition at 100 µM was determined as 83.5%.

For the compound `O=C(O)COCCN1CCN(C(c2ccccc2)c2ccc(Cl)cc2)CC1` (stereo unspecified) [CETIRIZINE], the inhibition at 100 µM was -4.8%.

`O=C1Nc2ccc(Cl)cc2[C@@](C#CC2CC2)(C(F)(F)F)O1` [EFAVIRENZ]: the inhibition at 100 µM stood at 37%.

For `COc1ccc(Cl)cc1C(=O)NCCc1ccc(S(=O)(=O)NC(=O)NC2CCCCC2)cc1` [GLYBURIDE], the inhibition at 100 µM is 0.3%.

On to `C[C@]12C[C@H](O)[C@H]3[C@@H](CCC4=CC(=O)CC[C@@]43C)[C@@H]1CC[C@@H]2C(=O)CO` [CORTICOSTERONE], for which the inhibition at 100 µM was 33.5%.

As for `Cc1cn([C@H]2C[C@H](N=[N+]=[N-])[C@@H](CO)O2)c(=O)[nH]c1=O` [ZIDOVUDINE], the inhibition at 100 µM worked out at 4.7%.

On to `NCCS` [CYSTEAMINE], for which the inhibition at 100 µM was 2.4%.

For the compound `CC(=O)N[C@H]1[C@H]([C@H](O)[C@H](O)CO)OC(C(=O)O)=C[C@@H]1N=C(N)N` [ZANAMIVIR], the inhibition at 100 µM came out at 2%.

In the case of `COc1ccc(CCN(C)CCCC(C#N)(c2ccc(OC)c(OC)c2)C(C)C)cc1OC` (stereo unspecified), the inhibition at 100 µM amounted to 86.4%.

Regarding `Oc1ncnc2[nH]ncc12` [ALLOPURINOL], the inhibition at 100 µM was determined as 7.7%.

On to `NS(=O)(=O)c1cc2c(cc1Cl)NCNS2(=O)=O` [HYDROCHLOROTHIAZIDE], for which the inhibition at 100 µM is -9.8%.

With `CC(C)(C)NCC(O)c1cc(O)cc(O)c1` (stereo unspecified) [TERBUTALINE], the inhibition at 100 µM is 2.6%.

In the case of `CN(C)C(=O)Oc1cccc([N+](C)(C)C)c1` [NEOSTIGMINE BROMIDE], the inhibition at 100 µM came to 19.4%.

For the compound `CC(C)(C)NC(=O)[C@@H]1CN(Cc2cccnc2)CCN1C[C@@H](O)C[C@@H](Cc1ccccc1)C(=O)N[C@H]1c2ccccc2C[C@H]1O`, the inhibition at 100 µM was 43%.

In the case of `CN1CC(=O)NC1=N` [CREATININE], the inhibition at 100 µM was 13.3%.

On to `Cn1c(=O)c2[nH]cnc2n(C)c1=O` [THEOPHYLLINE], for which the inhibition at 100 µM was -4.4%.

As for `CC1(C)S[C@@H]2[C@H](NC(=O)[C@H](N)c3ccccc3)C(=O)N2[C@H]1C(=O)O` [AMPICILLIN], the inhibition at 100 µM is 20.3%.

For the compound `CC(C)NC[C@H](O)c1ccc(O)c(O)c1`, the inhibition at 100 µM amounted to 15.6%.

For `CC(=O)O[C@H]1C(=O)[C@@]2(C)[C@H]([C@H](OC(=O)c3ccccc3)[C@]3(O)C[C@H](OC(=O)[C@H](O)[C@@H](NC(=O)c4ccccc4)c4ccccc4)C(C)=C1C3(C)C)[C@]1(OC(C)=O)CO[C@@H]1C[C@@H]2O` [PACLITAXEL], the inhibition at 100 µM was found to be 7.1%.

In the case of `CN[C@H](CC(C)C)C(=O)N[C@H]1C(=O)N[C@@H](CC(N)=O)C(=O)N[C@H]2C(=O)N[C@H]3C(=O)N[C@H](C(=O)N[C@H](C(=O)O)c4cc(O)cc(O)c4-c4cc3ccc4O)[C@H](O)c3ccc(c(Cl)c3)Oc3cc2cc(c3O[C@@H]2O[C@H](CO)[C@@H](O)[C@H](O)[C@H]2O[C@H]2C[C@](C)(N)[C@H](O)[C@H](C)O2)Oc2ccc(cc2Cl)[C@H]1O` [VANCOMYCIN], the inhibition at 100 µM was 7.1%.

In the case of `CC[C@H]1OC(=O)[C@H](C)[C@@H](O[C@H]2C[C@@](C)(OC)[C@@H](O)[C@H](C)O2)[C@H](C)[C@@H](O[C@@H]2O[C@H](C)C[C@H](N(C)C)[C@H]2O)[C@](C)(O)C[C@@H](C)C(=O)[C@H](C)[C@@H](O)[C@]1(C)O` [ERYTHROMYCIN], the inhibition at 100 µM worked out at 14%.

Turning to `Clc1ccccc1C(c1ccccc1)(c1ccccc1)n1ccnc1` [CLOTRIMAZOLE], the inhibition at 100 µM came to 69.3%.

For the compound `CC(=O)S[C@@H]1CC2=CC(=O)CC[C@]2(C)[C@H]2CC[C@@]3(C)[C@@H](CC[C@@]34CCC(=O)O4)[C@H]12` [SPIRONOLACTONE], the inhibition at 100 µM amounted to 87.9%.

In the case of `C[C@]12C=CC(=O)C=C1CC[C@@H]1[C@@H]2C(=O)C[C@@]2(C)[C@H]1CC[C@]2(O)C(=O)CO` [PREDNISONE], the inhibition at 100 µM was determined as 23.3%.

As to `Nc1nc2c(ncn2COCCO)c(=O)[nH]1` [ACYCLOVIR], the inhibition at 100 µM is -3.9%.

Turning to `CC1COc2c(N3CCN(C)CC3)c(F)cc3c(=O)c(C(=O)O)cn1c23` (stereo unspecified) [OFLOXACIN], the inhibition at 100 µM worked out at 21.1%.

As for `CC1=C(C(=O)O)N2C(=O)[C@@H](NC(=O)[C@H](N)c3ccccc3)[C@H]2SC1` [CEPHALEXIN ANHYDROUS], the inhibition at 100 µM is -1.9%.

As to `CC[C@]1(O)C[C@@H]2CN(CCc3c([nH]c4ccccc34)[C@@](C(=O)OC)(c3cc4c(cc3OC)N(C)[C@H]3[C@@](O)(C(=O)OC)[C@H](OC(C)=O)[C@]5(CC)C=CCN6CC[C@]43[C@@H]65)C2)C1` [VINBLASTINE], the inhibition at 100 µM was found to be 1.9%.

Staying with this data set, now noted: hek293.
As to `OC(CCN1CCCCC1)(c1ccccc1)C1CCCCC1` (stereo unspecified) [TRIHEXYPHENIDYL], the inhibition at 100 µM came to 79.4%.

On to `CC(C)c1cccc(C(C)C)c1O` [PROPOFOL], for which the inhibition at 100 µM is -17.9%.

Consider `CC(=O)[C@H]1CC[C@H]2[C@@H]3CCC4=CC(=O)CC[C@]4(C)[C@H]3CC[C@]12C` [PROGESTERONE], for which the inhibition at 100 µM amounted to 55.7%.

In the case of `CN1CCC[C@H]1c1cccnc1` [NICOTINE], the inhibition at 100 µM was -3.7%.

In the case of `CN/C(=N/CCSCc1nc[nH]c1C)NC#N` [CIMETIDINE], the inhibition at 100 µM amounted to 8.1%.

For `CC(C)N(CCC(C(N)=O)(c1ccccc1)c1ccccn1)C(C)C` (stereo unspecified) [DISOPYRAMIDE], the inhibition at 100 µM is 68.8%.

Take `NCCc1c[nH]cn1` [HISTAMINE]: the inhibition at 100 µM was 4.1%.

`O=P1(N(CCCl)CCCl)NCCCO1` (stereo unspecified) [CYCLOPHOSPHAMIDE ANHYDROUS]: the inhibition at 100 µM was found to be 4.7%.

`NCCc1ccc(O)c(O)c1` [DOPAMINE]: the inhibition at 100 µM turned out to be 11.8%.
